Laboratory results: patent publication US20120282237A1, “USE OF PROTEIN ARGININE METHYLTRANSFERASES IN REGULATING HEMATOPOIETIC DIFFERENTIATION” (priority 2011, published 2012)

Experiments:
K562 cells [1] = test: Ara-C-induced erythroid differentiation of K562 cells, benzidine staining; format: cell-based, human
Procedure: Various K562 cell clones were treated with Ara-C (A, 1 μM) and sodium butyrate (B, 2 mM) for 96 hr, and measured by qualifying hemoglobin-positive cells with benzidine stain. […] All experiments were performed at least three times and data are presented as means±S.E.; *** p<0.005 as compared with K562 parental cells.
The methyltransferase inhibitor, adenosine dialdehyde (AdOx), was added 8 hours before Ara-C treatment. Inhibition of methylation suppressed Ara-C-induced erythroid differentiation (A). The enzymatically impaired mutant PRMT1G80R, when transiently expressed in K562 cells (B), lost the effect on both megakaryocyte (C) and erythroid (D) differentiations. […] All experiments were performed at least three times and data are presented as means±S.E.; *** p<0.005 as compared with K562 parental cells.
In order to test whether activity of PRMT1 participates in regulation of differentiation, adenosine dialdehyde (AdOx), an inhibitor of S-adenosylhomocysteine hydrolase, which indirectly suppresses methylation due to accumulation of products, was used to treat K562 cells. […] A single amino acid mutation (G80R) in the conserved SAM binding domain of PRMT1 with impaired methyltransferase activity (Kwak et al., Mol. Cell 2003, 11, 1055-1066), HA-PRMT1G80R, was transiently expressed in K562 cells (FIG. 5B).

[2] = system: human CD34+ hematopoietic cells; test: TPO-induced megakaryocyte differentiation of CD34+ cells, CD41 expression by flow cytometry; format: cell-based; details: TPO alone (100 ng/ml), day 15
Procedure: To analyze the megakaryocyte surface marker CD41, cells were first incubated in 2% bovine serum albumin for 30 min and then with fluorescein isothiocyanate (FITC)-conjugated anti-Plt-1 (CD41) antibodies (1:80, Beckman Coulter) in 1% bovine serum albumin for 30 min; cells were then analyzed by flow cytometry.
To investigate the effect of PRMT1 in more physiologically relevant conditions, TAT-HA-PRMT1 was introduced into human CD34^+ hematopoietic cells. CD34^+ cells were derived from human umbilical cord blood with consent from the mother and were collected and processed according to governmental regulations (“Guidelines for Collection and Use of Human Specimens for Research.” Department of Health, Taiwan). Isolation and expansion of CD34^+ cells were performed as described previously (Yao, et al., Stem Cells Dev. 2006, 15, 70-78).
Briefly, the CD34^+ cells were purified with CD34 microbeads by a Miltenyi VarioMACS device (Miltenyi Biotec) and cultivated in serum-free Iscove's modified Dulbecco's medium (IMDM) (HyClone) supplemented with serum substitutes (1.5 g/liter bovine serum albumin, 4.4 μg/ml insulin, 60 μg/ml transferrin, and 25.9 μM 2-mercaptoethanol) and a cytokine mixture (8.5 ng/ml TPO, 4.1 ng/ml interleukin-3, 15 ng/ml stem cell factor, 6.7 ng/ml flk2/flt3 ligand, 0.8 ng/ml interleukin-6, 3.2 ng/ml granulocyte colony-stimulating factor, and 1.3 ng/ml granulocyte-macrophage colony-stimulating factor) for 6 to 7 days. To induce megakaryocyte differentiation, the expanded CD34^+ cells were cultivated (5×10^4cells/ml) in media described above without cytokine mixture for 6 h. TPO (100 ng/ml) was added to induce differentiation. Expression of CD41 was analyzed by flow cytometry 15 days after TPO stimulation.
Recombinant TAT-fused HA-PRMT1 and HA-GFP (as a control) proteins were expressed in Escherichia coli and purified using Ni^+-nitrilotriacetic acid-agarose (Qiagen). Endotoxins were removed using Detoxi-Gel™ endotoxin removing gel (Pierce) according to the manufacturer's instructions. For differentiation study, recombinant TAT-fused proteins were added to CD34^+ cells 6 h before TPO stimulation and again at the time of TPO addition.
Both the recombinant TAT-conjugated HA-PRMT1 protein and the HA-GFP control protein were detected in cells by Western blot analysis (FIG. 6A). Erk was used as a loading control. Thrombopoietin (TPO) induces CD34^+ hematopoietic cells to undergo differentiation towards the megakaryocyte lineage as detected by the expression of the specific surface marker CD41. TPO-induced CD41 expression ranged from 45% to 76% in four different donors at day 15 after TPO treatment (Table 1).

K562 cells [3] = test: PMA-induced megakaryocyte differentiation of K562 cells (modified Wright-Giemsa staining, adherent cells); format: cell-based, human; details: PMA 40 nM
Procedure: For megakaryocyte differentiation, K562 cells were treated with 40 nM of PMA, (Sigma-Aldrich). Adherent cells with pseudopodia were examined by phase contrast light microscopy. For quantification, cells in suspension or loosely attached were first removed from the culture dish carefully, and adherent cells were then removed by trypsinization, collected, and counted. Cytological changes, including a multilobed nucleus and vacuolated cytoplasm, were examined by modified Wright-Giemsa staining. Three to four hundred cells were examined in each assay.
Megakaryopoiesis can be characterized by cytological changes and expression of lineage-specific markers such as CD41. […] In addition, we observed an increased number of adherent cells, about 30% at 96 hour (FIG. 2B, E3-6).

Nc1ncnc2c1ncn2C(C=O)OC(C=O)CO (centres unmarked) [AdOx, adenosine dialdehyde]
Ara-C-induced erythrocytic differentiation (K562 cells [1]; AdOx added 8 hours before Ara-C treatment): dramatically suppressed | erythrocytic differentiation (K562 cells [1]; AdOx alone, no Ara-C): did not influence differentiation

TPO: Thrombopoietin, inducer of megakaryocyte differentiation of CD34+ cells (100 ng/ml)
CD41 expression ([2]; donor 1): 62.3% | CD41 expression ([2]; donor 2): 44.7% | CD41 expression ([2]; donor 3): 68.2% | CD41 expression ([2]; donor 4): 75.7%

CCCCCCCCCCCCCC(=O)O[C@@H]1[C@@H](C)[C@@]2(O)[C@@H](C=C(CO)C[C@]3(O)C(=O)C(C)=C[C@@H]23)[C@@H]2C(C)(C)[C@]12OC(C)=O [PMA, Phobol 12-myristate 13-acetate]
cells with characteristics of megakaryocytes (K562 cells [3]; E3-6 and parental K562 cells, 96 hours): About 50% | adherent cells (K562 cells [3]; E3-6 cells, 96 hour): about 30%
